Experimental data as given in patent US20230303495A9, “PYRIDINE OXYNITRIDE, PREPARATION METHOD THEREFOR AND USE THEREOF” (Orion Corporation, priority 2019, published 2023).

Columns and labels:
[1] = In vivo pharmacokinetics of rat, single intravenous injection or oral administration by gavage; design: species or system Male Sprague Dawley rats; details: male, Sprague-Dawley, plasma; for Vd: read-out: VZ; for bioavailability: intragastric (gavage) 10 mg/kg vs intravenous 1 mg/kg
Protocol: In this experimental embodiment, the in vivo pharmacokinetics of rat was evaluated by a single intravenous injection or oral administration by gavage.
Experimental methods and conditions: Male Sprague Dawley rats, all animals were fasted overnight, and the test compound was given 1 mg/Kg (intravenous injection, solvent […]) and 10 mg/Kg (administrated by gavage) respectively, 5, 15, 30 min, 1, 2, 4, 6, 8 and 24 hr after administration, blood was collected through the submandibular vein, about 0.20 mL of each sample was collected, heparin sodium was used for anticoagulation, the samples were placed on ice after the collection, then centrifuged within 1 hour to separate the plasma for testing. The blood drug concentration in plasma was detected by liquid-phase tandem mass spectrometry (LC/MS/MS), and the pharmacokinetic parameters were calculated by the measured concentration.

NaV1.8 = biological target: T1, NaV1.8 (Homo sapiens, UniProt Q9Y5Y9); assay: Whole-cell patch clamp blocking activity against NaV1.8 channel current; type: cell-based; details: for Blocking rate (%) @100 nM: against NaV1.8 at 100 nM, CHO cell line stably expressing Nav1.8, patch clamp; for IC50: CHO cell line stably expressing Nav1.8 (SCN10A: NM_006514), patch clamp
T1 construct: expressed in transfected cells
Protocol: 1. Test method: patch clamp technique was used to detect the influence of compounds on voltage-gated sodium channel (NaV) 1.1-1.8 subtype current
1) The specific information of the CHO cell line stably expressing the Nav1.8 channel was as follows: SCN10A: NM_006514
2) Cells were cultured in HAM'S/F-12 medium containing 10% fetal bovine serum and 10 μg/mL Blasticidin, 200 μg/mL Hygromycin B and 100 μg/mL Zeocin, culture temperature was 37° C. and the concentration of CO2 was 5%.
5) Patch clamp detection, before the experiment, the cells were separated with 0.25%—trypsin EDTA, inoculated into a 24 well plate with a density of 8*10^3 cells per well (final volume: 500 μL), tetracycline was added thereto, and experimental test was performed on the next day.
1) Extracellular fluid: 140 mM NaCl, 3.5 mM KCl, 2 mM CaCl2, 10 mM HEPES, 1.25 mM NaH2PO4, 1 mM MgCl2, 10 mM Glucose, pH=7.4 (NaOH).
2) Intracellular fluid: 50 mM CsCl, 10 mM NaCl, 10 mM HEPES, 20 mM EGTA, 60 mM CsF, pH=7.2 (CsOH).
The voltage stimulation scheme of whole-cell patch clamp recording of Nav channel current was as follows: first the membrane potential of the cell was clamped at −130 mV, and then the voltage was stepped to −40 mV or −20 mV at 10 mv step intervals for 8 s. The clamping voltage was maintained at −120 mV, and data was collected repeatedly every 20 seconds. The peak amplitude of its inward current was measured to determine its half-inactivation voltage.
The cell clamping potential was set at −120 mV. The resting and half-inactivation inhibition of sodium current was measured using double pulse mode. The double pulse mode was completed by two 0 mV depolarization test pulses (TP1 and TP2) lasting 50 ms. The conditional voltage between the two depolarization pulses was set near the half-inactivation voltage (lasting 8 s). […] The data acquisition was repeated at an interval of 20 s and the current peak was measured at the two test pulses.
When the current of the Nav channel recorded by the whole cell was stable, the drug was administered, after each drug concentration was applied for 5 minutes (or the current was stable), the next concentration would be tested, and multiple concentrations would be tested for each test compound. The cover glass covered with cells was placed in the recording bath of an inverted microscope, the test compound and the external liquid without compound flowed through the recording chambers in turns from low concentration to high concentration by gravity perfusion, so as to act on the cells, in the recording, the liquid exchange was carried out by vacuum pump. The current detected in each cell in the compound-free external fluid served as its own control group. Multiple cells were detected independently and repeatedly. All electrophysiological experiments were performed at room temperature.
First, the current after the action of each drug concentration and the blank control current were normalized, and then the blocking rate corresponding to each drug concentration was calculated. The mean and standard error were calculated for each concentration, and all the above values were calculated by Microsoft Excel 2013. In addition, the half-inhibitory concentration of each compound was calculated by IGOR software with the following equation: retardation rate=1/[1+(IC50/c)^h].
The dose-dependent effect was nonlinearly fitted with the above equation, wherein, c refers to the drug concentration, IC50 was the half inhibitory concentration, and h refers to the Hill coefficient. The curve fitting and the calculation of IC50 were completed by IGOR software (software version: 6.0.1.0).

[2] = intravenous administration 1 mg/kg
[3] = po, intragastric (gavage) 10 mg/kg

T1 sequence (Q9Y5Y9 whole entry): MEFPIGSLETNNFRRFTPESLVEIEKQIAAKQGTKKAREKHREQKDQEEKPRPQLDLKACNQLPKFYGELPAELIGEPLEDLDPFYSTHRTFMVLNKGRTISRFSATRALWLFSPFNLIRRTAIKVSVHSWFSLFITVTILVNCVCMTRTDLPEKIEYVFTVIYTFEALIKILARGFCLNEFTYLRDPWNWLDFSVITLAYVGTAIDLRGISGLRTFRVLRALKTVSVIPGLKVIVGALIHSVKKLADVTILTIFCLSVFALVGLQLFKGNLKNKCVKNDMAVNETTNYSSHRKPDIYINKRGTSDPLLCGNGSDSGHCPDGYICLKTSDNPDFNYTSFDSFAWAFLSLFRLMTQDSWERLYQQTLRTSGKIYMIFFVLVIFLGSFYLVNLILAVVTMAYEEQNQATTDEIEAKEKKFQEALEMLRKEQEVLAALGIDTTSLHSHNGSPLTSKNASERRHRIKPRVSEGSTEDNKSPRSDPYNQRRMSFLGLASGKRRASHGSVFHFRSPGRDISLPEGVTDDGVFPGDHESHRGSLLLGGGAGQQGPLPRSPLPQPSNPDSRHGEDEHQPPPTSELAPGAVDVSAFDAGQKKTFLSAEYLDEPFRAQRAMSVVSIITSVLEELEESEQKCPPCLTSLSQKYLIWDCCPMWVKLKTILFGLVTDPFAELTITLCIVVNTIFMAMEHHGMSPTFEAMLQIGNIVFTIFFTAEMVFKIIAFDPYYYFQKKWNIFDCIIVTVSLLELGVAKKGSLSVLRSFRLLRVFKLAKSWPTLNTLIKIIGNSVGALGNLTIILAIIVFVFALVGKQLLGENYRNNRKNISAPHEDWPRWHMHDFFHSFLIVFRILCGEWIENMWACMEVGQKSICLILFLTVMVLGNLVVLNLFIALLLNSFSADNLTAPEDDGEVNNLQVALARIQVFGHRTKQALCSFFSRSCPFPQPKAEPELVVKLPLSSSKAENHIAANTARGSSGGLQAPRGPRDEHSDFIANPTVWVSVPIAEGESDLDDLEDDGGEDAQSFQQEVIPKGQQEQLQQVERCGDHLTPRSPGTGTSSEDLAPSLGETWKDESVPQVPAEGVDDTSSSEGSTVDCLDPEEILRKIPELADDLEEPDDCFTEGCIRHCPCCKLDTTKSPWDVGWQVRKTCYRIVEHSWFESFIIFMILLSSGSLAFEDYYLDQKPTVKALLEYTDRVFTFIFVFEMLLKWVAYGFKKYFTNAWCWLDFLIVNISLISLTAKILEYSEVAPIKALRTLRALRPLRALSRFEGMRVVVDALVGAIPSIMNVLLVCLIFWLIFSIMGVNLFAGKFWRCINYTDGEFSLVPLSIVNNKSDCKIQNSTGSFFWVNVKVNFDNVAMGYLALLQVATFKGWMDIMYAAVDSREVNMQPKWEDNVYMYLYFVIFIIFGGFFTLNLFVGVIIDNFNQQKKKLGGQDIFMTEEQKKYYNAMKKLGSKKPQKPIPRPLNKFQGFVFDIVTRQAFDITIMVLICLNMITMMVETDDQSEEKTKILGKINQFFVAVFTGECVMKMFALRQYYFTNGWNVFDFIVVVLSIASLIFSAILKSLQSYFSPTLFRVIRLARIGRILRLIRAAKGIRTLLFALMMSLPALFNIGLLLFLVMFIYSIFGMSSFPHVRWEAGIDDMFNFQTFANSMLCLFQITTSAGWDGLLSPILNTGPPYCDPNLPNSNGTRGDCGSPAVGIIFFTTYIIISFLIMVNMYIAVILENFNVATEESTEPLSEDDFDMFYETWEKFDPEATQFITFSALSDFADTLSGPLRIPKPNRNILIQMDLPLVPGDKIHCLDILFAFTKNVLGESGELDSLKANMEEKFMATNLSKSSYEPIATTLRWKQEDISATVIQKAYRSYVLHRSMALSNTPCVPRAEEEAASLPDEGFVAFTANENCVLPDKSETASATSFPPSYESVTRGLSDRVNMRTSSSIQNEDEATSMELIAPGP

| AUC(0-inf) [1, 2] [µg·h/mL] | clearance [1, 2] [mL/min/kg] | half-life [1, 2] [min] | Vd [1, 2] [L/kg] | AUC(0-inf) [1, 3] [µg·h/mL] | Cmax [1, 3] [ng/mL] | half-life [1, 3] [min] | bioavailability ([1]; po) [%] | Blocking rate (%) @100 nM (NaV1.8) [%] | IC50 (NaV1.8) [nM] | Compound |
| --- | --- | --- | --- | --- | --- | --- | --- | --- | --- | --- |
| 18.8 | 0.91 | 272 | 0.355 | 67.2 | 4920 | 345 | 35.7 | 99.14 |  | O=C(Nc1ccc[n+]([O-])c1)c1c(Oc2ccc(OC(F)(F)F)c(F)c2)cc(C(F)(F)F)c(Cl)c1F [Embodiment A84] |
| 2.76 | 6.15 | 137 | 1.19 | 14 | 1710 | 148 | 50.7 | 92.47 |  | Cc1cc(F)ccc1Oc1cc(C(F)(F)F)c(Cl)cc1C(=O)Nc1ccc[n+]([O-])c1 [Embodiment A103] |
| 56.7 | 0.3 | 736 | 0.312 | 399 | 17100 | 729 | 70.4 |  | 2 | O=C(Nc1ccc[n+]([O-])c1)c1cc(Cl)c(C(F)(F)F)cc1Oc1ccc(OC(F)(F)F)cc1 [Embodiment A69] |
| 1.46 | 11.4 | 42 | 0.699 | 10.6 | 1330 | 151 | 72.6 |  | 6.2 | O=C(Nc1ccc[n+]([O-])c1)c1cc(Cl)c(Cl)cc1Oc1ccc(OC(F)(F)F)cc1 [Embodiment A11] |
| 33.3 | 0.5 | 314 | 0.228 | 139 | 9700 | 343 | 41.8 | 99.15 | 0.27 | O=C(Nc1ccc[n+]([O-])c1)c1c(Oc2ccc(OC(F)(F)F)cc2)cc(C(F)(F)F)c(Cl)c1F [Embodiment A68] |
| 9.6 | 1.74 | 785 | 1.97 | 117 | 3000 | 1670 | 68.2 |  | 3.7 | O=C(Nc1cc[n+]([O-])nc1)c1c(Oc2ccc(OC(F)(F)F)c(F)c2)ccc(C(F)(F)F)c1F [Embodiment A56] |
| 15.6 | 1.08 | 1200 | 1.85 | 2930 | 2060 | 54900 | 46.8 |  | 3.1 | O=C(Nc1cc[n+](O)nc1)c1c(Oc2ccc(OC(F)(F)F)cc2)ccc(C(F)(F)F)c1F [Embodiment A46] |
|  |  |  |  |  |  |  |  |  | 10.2 | O=C(Nc1cc[n+]([O-])nc1)c1c(Oc2ccc(OC(F)(F)F)cc2)cnc(C(F)(F)F)c1F [Embodiment A61] |
|  |  |  |  |  |  |  |  | 90.16 |  | O=C(Nc1ccn[n+]([O-])c1)c1c(Oc2ccc(OC(F)(F)F)cc2)ccc(Br)c1F [Embodiment A34] |
|  |  |  |  |  |  |  |  | 81.85 |  | Cc1cc(F)ccc1Oc1cc(S(F)(F)(F)(F)F)ccc1C(=O)Nc1ccc[n+]([O-])c1 [Embodiment A8] |
|  |  |  |  |  |  |  |  | 87.63 |  | O=C(Nc1ccc[n+]([O-])c1)c1c(Cl)cc(C(F)(F)F)cc1Oc1ccc(OC(F)(F)F)cc1 [Embodiment A29] |
|  |  |  |  |  |  |  |  | 93.84 |  | O=C(Nc1ccc[n+]([O-])c1)c1cc(Cl)c(C2CC2)cc1Oc1ccc(OC(F)(F)F)cc1 [Embodiment A95] |
|  |  |  |  |  |  |  |  |  | 3.5 | O=C(Nc1ccc[n+](O)c1)c1c(Oc2ccc(OC(F)(F)F)cc2)ccc(Br)c1F [Embodiment A74] |
|  |  |  |  |  |  |  |  |  | 1.8 | O=C(Nc1ccc[n+](O)c1)c1c(Oc2ccc(OC(F)(F)F)cc2)ccc(C(F)(F)F)c1Cl [Embodiment A57] |
|  |  |  |  |  |  |  |  | 98.02 |  | O=C(Nc1ccc[n+](O)c1)c1c(Oc2ccc(OC(F)(F)F)c(F)c2)cc(Cl)c(Cl)c1F [Embodiment A21] |
|  |  |  |  |  |  |  |  | 99.91 |  | O=C(Nc1ccc[n+]([O-])c1)c1c(Oc2ccc(OC(F)(F)F)cc2)cc(Cl)c(C(F)(F)F)c1F [Embodiment A40] |
|  |  |  |  |  |  |  |  | 95.70 |  | O=C(Nc1ccc[n+]([O-])c1)c1c(Oc2ccc(OC(F)(F)F)cc2)ccc(CC2CC2)c1F [Embodiment A98] |
|  |  |  |  |  |  |  |  |  | 0.32 | O=C(Nc1ccc[n+]([O-])c1)c1c(Oc2ccc(OC(F)(F)F)cc2)cc(Cl)c(Cl)c1F [Embodiment A22] |
|  |  |  |  |  |  |  |  | 93.13 |  | O=C(Nc1ccc[n+]([O-])c1)c1c(Oc2ccc(OC(F)(F)F)cc2)cnc(C(F)(F)F)c1Cl [Embodiment A63] |
|  |  |  |  |  |  |  |  | 89.50 |  | Cc1cc(Oc2ccc(OC(F)(F)F)cc2)c(C(=O)Nc2ccc[n+]([O-])c2)cc1C(F)(F)F [Embodiment A90] |
|  |  |  |  |  |  |  |  |  | 10 | O=C(Nc1ccc[n+](O)c1)c1c(Oc2ccc(OC(F)(F)F)cc2)ccc(OC(F)(F)F)c1F [Embodiment A19] |
|  |  |  |  |  |  |  |  | 87.57 |  | O=C(Nc1ccc[n+]([O-])c1)c1c(Oc2ccc(OC(F)(F)F)cc2)cnc(C(F)(F)F)c1F [Embodiment A59] |
